# From patent publication US20140366440A1, “METHOD FOR PRODUCING CLONE SEEDLINGS” (OKAYAMA PREFECTURE, priority 2009, published 2014)
# What was measured:
# [1] = system: Mango (Mangifera Indica Linn. variety name: Irwin); assay: Rooting of mango cuttings in rooting medium containing oxidized glutathione; assay type: in vivo; conditions: one and half months
# Excerpt: A mango (Mangifera Indica Linn. variety name: Irwin) was used as a material of a cutting. Specifically, a cutting including one to three joints and one to five leaves was cut from a branch of a mother tree, and each leaf was partially cut off. Furthermore, the material was wounded by a cutter. The cutting was thus prepared.
# The shoot thus obtained was washed with running water over night, and was dipped into an insecticide solution such as “Kotetsu”. Then the shoot had been planted to a supporter infiltrated with a four-diluted MS medium (Composition: ammonium nitrate of 412.5 mg/L, potassium nitrate of 475 mg/L, sodium dihydrogenphosphate of 42.52 mg/L, potassium iodide of 0.21 mg/L, etc. Note that a carbon source other than glutathione was not added to this medium.) to which the oxidized glutathione of 50 mg/L, STS (AgS4O6) of 5 μM serving as a silver ion source, ascorbic acid of 50 mg/L serving an antioxidant, and IBA of 10 mg/L serving as a plant hormone were added. In this case, natural soil such as sand and akadama soil; or a composite soil of vermiculite, perlite, peat moss, etc. was used as the supporter. […]
# Ten to twenty shoots were planted per culture container. A rooting rate was calculated from the number of test pieces of the shoot and the number of shoots (the number of rooted shoots) which had been rooted after the foliage was cultured for one and half months.
# E. uro-grandis A = assay: Rooting of cuttings, oxidized glutathione solution sprayed to supporter; assay type: in vivo, crossbreed of eucalyptus urophylla and eucalyptus grandis; conditions: three weeks
# Description: A crossbreed of eucalyptus urophylla and eucalyptus grandis (hereinafter, abbreviated as an “E. uro-grandis”) (Line name: A) was used as a material of a cutting. Specifically, a graft grown to have a length of about 5 cm to 20 cm, about one to three joints, and about two to six leaves was cut out from a mother tree, and a tip of each leaf was cut off by cutting off about a half from the tip thereof. In this way, the cutting was prepared.
# A composite soil of carbonized chaff, coconut fiber, and vermiculite which had been put into a seedling pot (3 cm in inner diameter×15 cm in height) in advance was used as a supporter. Oxidized glutathione was dissolved in water so that an oxidized glutathione concentration became 50 mg/L. The oxidized glutathione solution was thus prepared. The oxidized glutathione solution was sprayed to the seedling pot from the above by use of a watering can so that the supporter was soaked with the oxidized glutathione solution (50 mg/L) by spraying a spray amount of water of about 8.5 ml of the oxidized glutathione solution per seedling pot. Thereafter, a base of the cutting was planted to the supporter. After this planting, the cutting was bred for three weeks in a green house which shielded sunlight by 50%. In the green house, a high humidity (80% or more) was kept by frequently spraying mist. After three weeks from the planting, a rooting ratio was calculated from the number of rooted cuttings.
# A seedling was bred in the same way as Example 4, except that a solution having an oxidized glutathione concentration of 200 mg/L was used as the oxidized glutathione solution.
# A seedling was bred in the same way as Example 4, except that a solution having an oxidized glutathione concentration of 500 mg/L was used as the oxidized glutathione solution.
# A seedling was bred in the same way as Example 4, except that a solution having an oxidized glutathione concentration of 1000 mg/L was used as the oxidized glutathione solution.
substance,measurement,setting,value
oxidized glutathione,Number of rooted shoots,"[1]; Example 11: 50 mg/L in rooting medium, of 26 test pieces",7
same,Rooting rate (%),"[1]; Example 11: 50 mg/L, adding glutathione to rooting medium (with STS, ascorbic acid, IBA 10 mg/L), 26 test pieces",26.9%
same,Rooting rate (%),"E. uro-grandis A; Example 4: 50 mg/L solution, spraying to supporter (about 8.5 ml per pot), 44 test pieces",75.0%
same,Number of rooted shoots,"E. uro-grandis A; Example 4: 50 mg/L, spraying to supporter, of 44 test pieces",33
same,Rooting rate (%),"E. uro-grandis A; Example 5: 200 mg/L, spraying to supporter, 44 test pieces",77.3%
same,Number of rooted shoots,"E. uro-grandis A; Example 5: 200 mg/L, spraying to supporter, of 44 test pieces",34
same,Rooting rate (%),"E. uro-grandis A; Example 6: 500 mg/L, spraying to supporter, 44 test pieces",84.1%
same,Number of rooted shoots,"E. uro-grandis A; Example 6: 500 mg/L, spraying to supporter, of 44 test pieces",37
same,Rooting rate (%),"E. uro-grandis A; Example 7: 1000 mg/L, spraying to supporter, 176 test pieces",72.7%
same,Number of rooted shoots,"E. uro-grandis A; Example 7: 1000 mg/L, spraying to supporter, of 176 test pieces",128
